This note sets out measurements from patent US10519152B2, “Compounds and their use in treating cancer” (AstraZeneca AB, priority 2017, dated 2019).

For experiment [1], the target named is T1, recombinant human Estrogen Receptor alpha ligand binding domain, residues 307-554 (ER alpha-LBD (GST)) (Homo sapiens, UniProt P03372).
T1 construct: made in house
T1 sequence (P03372 307-554): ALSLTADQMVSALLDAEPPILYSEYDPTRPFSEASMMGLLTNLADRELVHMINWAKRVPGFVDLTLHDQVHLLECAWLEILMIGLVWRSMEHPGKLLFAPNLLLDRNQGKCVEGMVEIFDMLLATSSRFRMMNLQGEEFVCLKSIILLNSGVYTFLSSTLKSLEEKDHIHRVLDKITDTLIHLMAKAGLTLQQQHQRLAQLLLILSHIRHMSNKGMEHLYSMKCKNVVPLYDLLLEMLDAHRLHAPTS
The experiment can be described thus: ERα binding assay (LanthaScreen TR-FRET competition). The conditions noted are these: TR-FRET competition with Fluormone ES2 tracer, 4 hours at room temperature; single experiment or average of two or more. Background: TR-FRET usually uses a lanthanide donor and a delayed reading to cut background.

The target in experiment [2] is T2, Estrogen Receptor (ERα) in MCF-7 human ductal carcinoma breast cell line (Homo sapiens, UniProt P03372).
T2 construct: endogenous in cells; host or cells: MCF-7
T2 sequence (P03372 1-595): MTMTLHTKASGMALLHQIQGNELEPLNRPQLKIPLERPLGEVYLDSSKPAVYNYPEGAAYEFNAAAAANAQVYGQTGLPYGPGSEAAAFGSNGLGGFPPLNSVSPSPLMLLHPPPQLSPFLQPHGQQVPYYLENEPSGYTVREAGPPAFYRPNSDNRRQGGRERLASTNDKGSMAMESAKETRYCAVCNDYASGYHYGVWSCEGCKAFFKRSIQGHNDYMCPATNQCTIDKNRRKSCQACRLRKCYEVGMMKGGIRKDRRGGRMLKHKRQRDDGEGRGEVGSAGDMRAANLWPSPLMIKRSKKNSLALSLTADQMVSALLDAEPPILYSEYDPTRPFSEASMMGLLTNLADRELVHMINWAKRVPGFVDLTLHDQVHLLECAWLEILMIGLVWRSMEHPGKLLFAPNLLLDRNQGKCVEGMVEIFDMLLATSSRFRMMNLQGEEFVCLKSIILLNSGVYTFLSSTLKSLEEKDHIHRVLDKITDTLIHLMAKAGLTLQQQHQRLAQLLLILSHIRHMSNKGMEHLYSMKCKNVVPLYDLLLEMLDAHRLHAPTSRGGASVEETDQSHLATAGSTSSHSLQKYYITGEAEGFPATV
The experiment can be described thus: MCF-7 ER degradation assay (cell based immuno-fluorescence). The conditions noted are these: MCF-7 cells, 18-22 hours incubation, 50% reduction of ERα expression; single experiment or average of two or more; read-out: MCF-7 ER degradation IC50. The procedure, abridged: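 MCF-7 human ductal carcinoma breast cells were seeded at 3.75×10^4 cells per mL (40 μL per well) in 384 well plates with phenol red free DMEM containing 2 mM L-Glutamine and 5% (v/v) Charcoal/Dextran treated foetal calf serum. After overnight culture, compounds were acoustically dispensed, incubated 18-22 hours, then cells were formaldehyde-fixed and immunostained for ERα.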

As for `Cc1ncsc1-c1ccc([C@H](C)NC(=O)[C@@H]2C[C@@H](O)CN2C(=O)[C@@H](NC(=O)COCCCOCCCCOc2cc(F)c([C@@H]3c4[nH]c5ccccc5c4C[C@@H](C)N3CC(C)(C)F)c(F)c2)C(C)(C)C)cc1` [Example 155, (2S,4R)-1-((S)-2-(2-(3-(4-(3,5-Difluoro-4-((1R,3R)-2-(2-fluoro-2-methylpropyl)-3-methyl-2,3,4,9-tetrahydro-1H-pyrido[3,4-b]indol-1-yl)phenoxy)butoxy)propoxy)acetamido)-3,3-dimethylbutanoyl)-4-hydroxy-N—((S)-1-(4-(4-methylthiazol-5-yl)phenyl)ethyl)pyrrolidine-2-carboxamide], in experiment [1], the concentration for half-maximal inhibition (IC50) turned out to be 0.3 nM. For the same molecule, the DC50 in experiment [2] was determined as 0.7 nM.

The IC50 is the concentration at which inhibition is half-maximal.
